Source: patent US20020137929A1, “1 - (3-heterocyclylphenyl) isothiourea, -isourea, -guanidine and -amidine herbicidal agents” (Intellectual Property Department, BASF Aktiengesellschaft, priority 1998, published 2002)

Assays:
CYPSE (Flatsedge) [1] = experiment: Preemergence weed control under flooded paddy conditions; type: in vivo, Cyperus serotinus; conditions: rated 3-4 weeks after treatment
How it was run: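 Silt loam, seeds in top 0.5 cm; flood held 1.5-3 cm; test cpd as acetone/water 50/50 into flood water, ~0.0313-0.500 kg/ha a.i.; greenhouse 3-4 wk; visual 0-9 score vs control.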

[2] = test system: ECHORC (Watergrass (Calif.)); experiment: Postemergence weed control under flooded paddy conditions; type: in vivo, Echinochloa oryzoides; conditions: postemergence weeds, 3-4 weeks after treatment
How it was run: (§1)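 Flood-water application, about 0.0313–0.500 kg/ha a.i. in aqueous/acetone 50/50 v/v; water depth 1.5–3 cm throughout. Weeds 3–5 cm, rice 1.5–2.5 leaf. Greenhouse; 0–9 visual rating vs control at 3–4 wk.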

[3] = test system: TRZAWR (Wheat, Winter, cv Riband); experiment: Preemergence herbicidal evaluation; type: in vivo, Triticum aestivum; conditions: rated 4-5 weeks after treatment
How it was run: (§2)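 Herbicidal effect scored visually, 0-9, at 4 to 5 weeks against a control; compound applied preemergence by aqueous acetone spray to seeded soil at about 0.0156 to 0.500 kg/ha.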

GALAP (Galium) = experiment: Postemergence herbicidal evaluation; type: in vivo, Galium aparine
How it was run: (§3)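 Two-week seedlings sprayed postemergence at 40 psi; formulation: 1:1 acetone/water, 0.5% TWEEN 20; application ≈0.0156–0.500 kg/ha. Greenhouse grow-out, then 0–9 visual scoring at 4–5 weeks.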

AMBEL (Ragweed, Common) = experiment: Preemergence herbicidal evaluation; type: in vivo, Ambrosia artemisifolia; conditions: rated 4-5 weeks after treatment
How it was run: as §2

ZEAMX (Corn, Field) [4] = experiment: Postemergence herbicidal evaluation; type: in vivo, Zea mays
How it was run: as §3

CYPSE (Flatsedge) [5] = experiment: Postemergence weed control under flooded paddy conditions; type: in vivo, Cyperus serotinus; conditions: postemergence weeds, 3-4 weeks after treatment
How it was run: as §1

[6] = test system: IPOHE (Morningglory, Ivyleaf); experiment: Preemergence herbicidal evaluation; type: in vivo, Ipomoea hederacea; conditions: rated 4-5 weeks after treatment
How it was run: as §2

CYPIR (Rice Flatsedge) = experiment: Preemergence weed control under flooded paddy conditions; type: in vivo, Cyperus iria; conditions: rated 3-4 weeks after treatment
How it was run: (§4)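 First, seeds or propagules go into the top 0.5 cm of silt loam; next, water is held 1.5 to 3 cm over the soil; then compound (50/50 acetone/water) is pipetted into it at about 0.0313 to 0.500 kg/ha; finally plants are rated visually 0-9 after three to four weeks.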

ZEAMX (Corn, Field) [7] = experiment: Preemergence herbicidal evaluation; type: in vivo, Zea mays; conditions: rated 4-5 weeks after treatment
How it was run: as §2

CASOB (Sicklepod) = experiment: Postemergence herbicidal evaluation; type: in vivo, Cassia obtusifolia
How it was run: as §3

ORYSAT (Rice, Tebonnet) = experiment: Preemergence herbicidal evaluation; type: in vivo, Oryza sativa, (L.) Tebonnet; conditions: rated 4-5 weeks after treatment
How it was run: as §2

[8] = test system: ECHORC (Watergrass (Calif.)); experiment: Preemergence weed control under flooded paddy conditions; type: in vivo, Echinochloa oryzoides; conditions: rated 3-4 weeks after treatment
How it was run: as §4

[9] = test system: CHEAL (Lambsquarters, Common); experiment: Preemergence herbicidal evaluation; type: in vivo, Chenopodium album; conditions: rated 4-5 weeks after treatment
How it was run: as §2

CCOC(=O)CN1C(=O)C(CC(=O)OCc2ccccc2)OC1=Nc1cc(-n2c(=O)cc(C(F)(F)F)n(C)c2=O)c(F)cc1Cl (centres unmarked) [Compound 40, 2-{{2-Chloro-5-[3,6-dihydro-3-methyl-2,6-dioxo-4-(trifluoromethyl)-1(2H)-pyrimidinyl]-4-fluorophenyl}imino}-4-oxo-3,5-oxazolidinediacetic acid, 5-benzyl ethyl ester]
Herbicidal rating CYPSE (CYPSE (Flatsedge) [1]; 0.0313 kg/ha): 0.0 | Herbicidal rating CYPSE (CYPSE (Flatsedge) [1]; 0.0625 kg/ha): 0.0 | Herbicidal rating CYPSE (CYPSE (Flatsedge) [1]; 0.1250 kg/ha): 0.0 | Herbicidal rating CYPSE (CYPSE (Flatsedge) [1]; 0.2500 kg/ha): 6.0 | Herbicidal rating ECHORC ([2]; rate 0.0313 kg/ha): 5.0 | Herbicidal rating ECHORC ([2]; rate 0.0625 kg/ha): 5.0 | Herbicidal rating ECHORC ([2]; rate 0.1250 kg/ha): 5.0 | Herbicidal rating ECHORC ([2]; rate 0.2500 kg/ha): 9.0 | Preemergence herbicidal rating TRZAWR ([3]; rate 0.0313 kg/ha): 0.0 | Preemergence herbicidal rating TRZAWR ([3]; rate 0.0625 kg/ha): 0.0 | Preemergence herbicidal rating TRZAWR ([3]; rate 0.1250 kg/ha): 0.0 | Preemergence herbicidal rating TRZAWR ([3]; rate 0.2500 kg/ha): 1.0 | Postemergence herbicidal rating GALAP (GALAP (Galium); Rate 0.0158 kg/ha): 1.0 | Postemergence herbicidal rating GALAP (GALAP (Galium); Rate 0.0315 kg/ha): 2.0 | Postemergence herbicidal rating GALAP (GALAP (Galium); Rate 0.0630 kg/ha): 4.0 | Preemergence herbicidal rating AMBEL (AMBEL (Ragweed, Common); rate 0.0313 kg/ha): 0.0 | Preemergence herbicidal rating AMBEL (AMBEL (Ragweed, Common); rate 0.0625 kg/ha): 2.0 | Preemergence herbicidal rating AMBEL (AMBEL (Ragweed, Common); rate 0.1250 kg/ha): 6.0 | Preemergence herbicidal rating AMBEL (AMBEL (Ragweed, Common); rate 0.2500 kg/ha): 6.0 | Postemergence herbicidal rating ZEAMX (ZEAMX (Corn, Field) [4]; Rate 0.0158 kg/ha): 7.0 | Postemergence herbicidal rating ZEAMX (ZEAMX (Corn, Field) [4]; Rate 0.0315 kg/ha): 7.5 | Postemergence herbicidal rating ZEAMX (ZEAMX (Corn, Field) [4]; Rate 0.0630 kg/ha): 8.5 | Herbicidal rating CYPSE (CYPSE (Flatsedge) [5]; rate 0.0313 kg/ha): 0.0 | Herbicidal rating CYPSE (CYPSE (Flatsedge) [5]; rate 0.0625 kg/ha): 0.0 | Herbicidal rating CYPSE (CYPSE (Flatsedge) [5]; rate 0.1250 kg/ha): 0.0 | Herbicidal rating CYPSE (CYPSE (Flatsedge) [5]; rate 0.2500 kg/ha): 6.0 | Preemergence herbicidal rating IPOHE ([6]; rate 0.0313 kg/ha): 0.0 | Preemergence herbicidal rating IPOHE ([6]; rate 0.0625 kg/ha): 0.0 | Preemergence herbicidal rating IPOHE ([6]; rate 0.1250 kg/ha): 9.0 | Preemergence herbicidal rating IPOHE ([6]; rate 0.2500 kg/ha): 9.0 | Herbicidal rating CYPIR (CYPIR (Rice Flatsedge); 0.0313 kg/ha): 0.0 | Herbicidal rating CYPIR (CYPIR (Rice Flatsedge); 0.0625 kg/ha): 0.0 | Herbicidal rating CYPIR (CYPIR (Rice Flatsedge); 0.1250 kg/ha): 0.0 | Herbicidal rating CYPIR (CYPIR (Rice Flatsedge); 0.2500 kg/ha): 0.0 | Preemergence herbicidal rating ZEAMX (ZEAMX (Corn, Field) [7]; rate 0.0313 kg/ha): 0.0 | Preemergence herbicidal rating ZEAMX (ZEAMX (Corn, Field) [7]; rate 0.0625 kg/ha): 0.0 | Preemergence herbicidal rating ZEAMX (ZEAMX (Corn, Field) [7]; rate 0.1250 kg/ha): 0.0 | Preemergence herbicidal rating ZEAMX (ZEAMX (Corn, Field) [7]; rate 0.2500 kg/ha): 1.0 | Postemergence herbicidal rating CASOB (CASOB (Sicklepod); Rate 0.0158 kg/ha): 0.0 | Postemergence herbicidal rating CASOB (CASOB (Sicklepod); Rate 0.0315 kg/ha): 2.0 | Postemergence herbicidal rating CASOB (CASOB (Sicklepod); Rate 0.0630 kg/ha): 5.0 | Preemergence herbicidal rating ORYSAT (ORYSAT (Rice, Tebonnet); rate 0.0313 kg/ha): 0.0 | Preemergence herbicidal rating ORYSAT (ORYSAT (Rice, Tebonnet); rate 0.0625 kg/ha): 0.0 | Preemergence herbicidal rating ORYSAT (ORYSAT (Rice, Tebonnet); rate 0.1250 kg/ha): 0.0 | Preemergence herbicidal rating ORYSAT (ORYSAT (Rice, Tebonnet); rate 0.2500 kg/ha): 1.0 | Herbicidal rating ECHORC ([8]; 0.0313 kg/ha): 5.0 | Herbicidal rating ECHORC ([8]; 0.0625 kg/ha): 5.0 | Herbicidal rating ECHORC ([8]; 0.1250 kg/ha): 5.0 | Herbicidal rating ECHORC ([8]; 0.2500 kg/ha): 9.0 | Preemergence herbicidal rating CHEAL ([9]; rate 0.0313 kg/ha): 9.0 | Preemergence herbicidal rating CHEAL ([9]; rate 0.0625 kg/ha): 9.0 | Preemergence herbicidal rating CHEAL ([9]; rate 0.1250 kg/ha): 9.0 | Preemergence herbicidal rating CHEAL ([9]; rate 0.2500 kg/ha): 9.0
